Assay results: the NIST ThermoML archive (doi:10.1016/j.jct.2014.03.022)
Numbers after ± are expanded uncertainties.

Test: xn = mol fraction of the nth substance listed
Settings: for surface tension liquid-gas: Wilhelmy plate method; for viscosity: 101.3 kPa, Liquid, Concentric cylinders viscometry

CCCCCCCCCO [nonan-1-ol] + CN(C)C=O
Settings | surface tension liquid-gas, 298.15 K [mN/m] | surface tension liquid-gas, 303.15 K [mN/m] | surface tension liquid-gas, 308.15 K [mN/m] | surface tension liquid-gas, 313.15 K [mN/m] | viscosity, 298.15 K [mPa·s] | viscosity, 303.15 K [mPa·s] | viscosity, 308.15 K [mPa·s] | viscosity, 313.15 K [mPa·s]
x2 = 0 | 27.58 ± 0.57 | 26.53 ± 0.57 | 25.49 ± 0.56 | 24.44 ± 0.56 | 9.715 ± 0.22 | 7.927 ± 0.18 | 6.664 ± 0.15 | 5.645 ± 0.13
x2 = 0.2201 | 28.12 ± 0.55 | 27.04 ± 0.55 | 25.98 ± 0.54 | 24.92 ± 0.54 | 4.766 ± 0.11 | 3.633 ± 0.08 | 2.965 ± 0.065 | 2.416 ± 0.053
x2 = 0.3969 | 28.54 ± 0.53 | 27.42 ± 0.53 | 26.33 ± 0.53 | 25.27 ± 0.53 | 2.715 ± 0.059 | 1.932 ± 0.042 | 1.532 ± 0.033 | 1.196 ± 0.026
x2 = 0.5458 | 28.97 ± 0.52 | 27.81 ± 0.52 | 26.7 ± 0.52 | 25.62 ± 0.52 | 1.77 ± 0.038 | 1.213 ± 0.026 | 0.9531 ± 0.021 | 0.7287 ± 0.016
x2 = 0.6515 | 29.58 ± 0.52 | 28.39 ± 0.52 | 27.27 ± 0.51 | 26.18 ± 0.51 | 1.373 ± 0.029 | 0.9494 ± 0.021 | 0.7597 ± 0.017 | 0.5913 ± 0.013
x2 = 0.7321 | 30.3 ± 0.51 | 29.11 ± 0.51 | 27.98 ± 0.51 | 26.9 ± 0.51 | 1.156 ± 0.025 | 0.8443 ± 0.018 | 0.6817 ± 0.015 | 0.5692 ± 0.013
x2 = 0.8042 | 31.21 ± 0.51 | 30.03 ± 0.51 | 28.9 ± 0.51 | 27.83 ± 0.51 | 1.022 ± 0.022 | 0.7978 ± 0.017 | 0.6695 ± 0.015 | 0.5762 ± 0.013
x2 = 0.8644 | 32.19 ± 0.51 | 31.02 ± 0.51 | 29.9 ± 0.51 | 28.85 ± 0.51 | 0.9434 ± 0.02 | 0.7834 ± 0.017 | 0.6881 ± 0.015 | 0.6071 ± 0.013
x2 = 0.9168 | 33.23 ± 0.51 | 32.08 ± 0.51 | 30.97 ± 0.5 | 29.93 ± 0.5 | 0.8898 ± 0.019 | 0.7837 ± 0.017 | 0.7189 ± 0.015 | 0.6468 ± 0.014
x2 = 0.9596 | 34.2 ± 0.5 | 33.07 ± 0.5 | 31.97 ± 0.5 | 30.95 ± 0.5 | 0.8529 ± 0.018 | 0.7764 ± 0.017 | 0.727 ± 0.016 | 0.6663 ± 0.014
